Results reported in PubChem BioAssay AID256 (DTP/NCI, 2004).
Toxic doses and inconclusive results are not listed. The calls were made as follows: active = survival T/C of 150% or more; inactive = T/C below 125% in these data.

Tested on: CD2F1 mice, L1210 leukemia ip, survival T/C
Experiment: NCI In Vivo Anticancer Drug Screen. Data for tumor model L1210 Leukemia (intraperitoneal) in CD2F1 (CDF1) mice
Details: higher = longer survival
How it was run: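 Each value reflects a quotient of treated over vehicle control outcomes in mice with a transplanted tumor.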

[1] = endpoint: mean survival time, dose: 100.0 mg/kg/injection, schedule: Q01DX009 (ip), vehicle: saline with Tween-80
[2] = endpoint: mean survival time, dose: 100.0 mg/kg/injection, schedule: Q04DX003 (ip), vehicle: saline with Tween-80
[3] = endpoint: mean survival time, dose: 200.0 mg/kg/injection, schedule: Q04DX003 (ip), vehicle: saline with Tween-80
[4] = endpoint: mean survival time, dose: 400.0 mg/kg/injection, schedule: Q04DX003 (ip), vehicle: saline with Tween-80
[5] = endpoint: mean survival time, dose: 100.0 mg/kg/injection, schedule: Q04DX002 (ip), vehicle: saline with Tween-80
[6] = endpoint: mean survival time, dose: 200.0 mg/kg/injection, schedule: Q04DX002 (ip), vehicle: saline with Tween-80
[7] = endpoint: median survival time, dose: 25.0 mg/kg/injection, schedule: Q01DX009 (ip), vehicle: saline
[8] = endpoint: median survival time, dose: 50.0 mg/kg/injection, schedule: Q01DX009 (ip), vehicle: saline
[9] = endpoint: median survival time, dose: 100.0 mg/kg/injection, schedule: Q01DX009 (ip), vehicle: saline
[10] = endpoint: median survival time, dose: 200.0 mg/kg/injection, schedule: Q01DX009 (ip), vehicle: saline
[11] = endpoint: mean survival time, dose: 100.0 mg/kg/injection, schedule: Q01DX001 (ip), vehicle: saline with Tween-80
[12] = endpoint: mean survival time, dose: 200.0 mg/kg/injection, schedule: Q01DX001 (ip), vehicle: saline with Tween-80
[13] = endpoint: mean survival time, dose: 400.0 mg/kg/injection, schedule: Q01DX001 (ip), vehicle: saline with Tween-80
[14] = endpoint: mean survival time, dose: 200.0 mg/kg/injection, schedule: Q01DX009 (ip), vehicle: saline with Tween-80
[15] = endpoint: mean survival time, dose: 400.0 mg/kg/injection, schedule: Q01DX009 (ip), vehicle: saline with Tween-80

Measured: T/C

COC1=CC(=O)C(C2CC(=O)c3c(O)cc(O)cc3O2)=CC1=O (stereo unspecified)
inactive: [1] 101 % of control | [2] 100 % of control | [3] 100 % of control | [4] 98 % of control

C=C1C(=C)C2C=CC1C1C3C(c4ccccn4)=NN=C(c4ccccn4)C3C21 (stereo unspecified)
inactive: endpoint: mean survival time, dose: 25.0 mg/kg/injection, schedule: Q04DX002 (ip), vehicle: saline with Tween-80 95 % of control | endpoint: mean survival time, dose: 50.0 mg/kg/injection, schedule: Q04DX002 (ip), vehicle: saline with Tween-80 98 % of control | [5] 98 % of control | [6] 88 % of control | endpoint: mean survival time, dose: 400.0 mg/kg/injection, schedule: Q04DX002 (ip), vehicle: saline with Tween-80 103 % of control

NC(=O)CCC(N)C(=O)O (stereo unspecified)
inactive: endpoint: mean survival time, dose: 1.56 mg/kg/injection, schedule: Q01DX009 (ip), vehicle: saline 93 % of control | endpoint: mean survival time, dose: 3.13 mg/kg/injection, schedule: Q01DX009 (ip), vehicle: saline 104 % of control | endpoint: mean survival time, dose: 6.25 mg/kg/injection, schedule: Q01DX009 (ip), vehicle: saline 104 % of control | [7] 94 % of control | [8] 106 % of control | [9] 106 % of control | [10] 106 % of control | endpoint: median survival time, dose: 400.0 mg/kg/injection, schedule: Q01DX009 (ip), vehicle: saline 104 % of control

CCC(O)C(C)(C)[N+](=O)[O-] (stereo unspecified)
inactive: endpoint: mean survival time, dose: 5.0 mg/kg/injection, schedule: Q01DX009 (ip), vehicle: saline 95 % of control | endpoint: mean survival time, dose: 10.0 mg/kg/injection, schedule: Q01DX009 (ip), vehicle: saline 98 % of control | endpoint: mean survival time, dose: 20.0 mg/kg/injection, schedule: Q01DX009 (ip), vehicle: saline 98 % of control

O=C(COC(=O)C1CCCCCCC1)c1ccc(Br)cc1
inactive: [11] 100 % of control | [2] 94 % of control | [12] 107 % of control | [3] 96 % of control | [13] 97 % of control | [4] 97 % of control

NC(=O)CCc1ccnc2ccccc12
inactive: [5] 96 % of control | [6] 92 % of control

CN(C)c1nc(N)c2nonc2n1
inactive: endpoint: mean survival time, dose: 12.5 mg/kg/injection, schedule: Q01DX005 (ip), vehicle: other 97 % of control | endpoint: mean survival time, dose: 25.0 mg/kg/injection, schedule: Q01DX005 (ip), vehicle: other 97 % of control | endpoint: mean survival time, dose: 50.0 mg/kg/injection, schedule: Q01DX005 (ip), vehicle: other 92 % of control | endpoint: mean survival time, dose: 100.0 mg/kg/injection, schedule: Q01DX005 (ip), vehicle: other 97 % of control | endpoint: mean survival time, dose: 200.0 mg/kg/injection, schedule: Q01DX005 (ip), vehicle: other 95 % of control

S=C(NCCc1ccccc1)Nc1ccccc1
inactive: [2] 97 % of control | [3] 95 % of control | [4] 95 % of control

Cc1ccc(P(=S)(c2ccccc2)c2ccccc2)c2ccccc12
inactive: endpoint: mean survival time, dose: 100.0 mg/kg/injection, schedule: Q01DX001 (ip), vehicle: saline 104 % of control | endpoint: mean survival time, dose: 200.0 mg/kg/injection, schedule: Q01DX001 (ip), vehicle: saline 101 % of control | endpoint: mean survival time, dose: 400.0 mg/kg/injection, schedule: Q01DX001 (ip), vehicle: saline 95 % of control

COC(=O)C1C2C=CC(C3CCC23)C1C(=O)OC (stereo unspecified)
inactive: [1] 100 % of control | [14] 93 % of control | [15] 91 % of control

CC1(C)CCCC2(C)C1C(=O)C=CC2(O)CCc1ccoc1.CC12CCc3ccoc3C1CCC1(C(=O)O)C(CO)=CCCC12.[Ag] (stereo unspecified)
inactive: endpoint: mean survival time, dose: 75.0 mg/kg/injection, schedule: Q04DX002 (ip), vehicle: other 103 % of control | endpoint: mean survival time, dose: 150.0 mg/kg/injection, schedule: Q04DX002 (ip), vehicle: other 115 % of control | endpoint: mean survival time, dose: 300.0 mg/kg/injection, schedule: Q04DX002 (ip), vehicle: other 107 % of control

COc1cc2ccnc(Cc3ccc4c(c3)OCO4)c2cc1OC
inactive: endpoint: mean survival time, dose: 100.0 mg/kg/injection, schedule: Q01DX009 (ip), vehicle: saline 94 % of control | endpoint: mean survival time, dose: 100.0 mg/kg/injection, schedule: Q04DX003 (ip), vehicle: saline sonified 95 % of control | endpoint: mean survival time, dose: 200.0 mg/kg/injection, schedule: Q01DX009 (ip), vehicle: saline 95 % of control | endpoint: mean survival time, dose: 200.0 mg/kg/injection, schedule: Q04DX003 (ip), vehicle: saline sonified 105 % of control | endpoint: mean survival time, dose: 400.0 mg/kg/injection, schedule: Q01DX009 (ip), vehicle: saline 95 % of control | endpoint: mean survival time, dose: 400.0 mg/kg/injection, schedule: Q04DX003 (ip), vehicle: saline sonified 93 % of control

CN1C2CCC1C(Br)C(=O)C2 (stereo unspecified)
inactive: [7] 102 % of control | [8] 105 % of control | [9] 105 % of control | [10] 101 % of control

CCOC(=O)NCC(Cl)CP(=O)(c1ccccc1)c1ccccc1 (stereo unspecified)
inactive: [11] 92 % of control | [1] 97 % of control | [12] 92 % of control | [14] 97 % of control | [13] 92 % of control | [15] 96 % of control

CCOC(=O)c1cc(C(=O)OCC)c2ccc(Br)ccc1-2
inactive: endpoint: mean survival time, dose: 100.0 mg/kg/injection, schedule: Q01DX001 (sc), vehicle: olive oil, sesame oil, peanut oil 105 % of control | endpoint: mean survival time, dose: 200.0 mg/kg/injection, schedule: Q01DX001 (sc), vehicle: olive oil, sesame oil, peanut oil 96 % of control | endpoint: mean survival time, dose: 400.0 mg/kg/injection, schedule: Q01DX001 (sc), vehicle: olive oil, sesame oil, peanut oil 93 % of control

CCOC(=O)C1(C(=O)OCC)C(C)CC2Nc3cc4c(cc3C(=O)N21)OCO4 (stereo unspecified)
inactive: endpoint: mean survival time, dose: 100.0 mg/kg/injection, schedule: Q01DX001 (ip), vehicle: Klucel (hydroxypropylcellulose) (HPC) 92 % of control | endpoint: mean survival time, dose: 200.0 mg/kg/injection, schedule: Q01DX001 (ip), vehicle: Klucel (hydroxypropylcellulose) (HPC) 96 % of control | endpoint: mean survival time, dose: 400.0 mg/kg/injection, schedule: Q01DX001 (ip), vehicle: Klucel (hydroxypropylcellulose) (HPC) 96 % of control

c1ccc(C(=NN=C(c2ccccc2)c2ccccc2)c2ccccc2)cc1
inactive: [2] 97 % of control | [3] 97 % of control | [4] 95 % of control | endpoint: mean survival time, dose: 800.0 mg/kg/injection, schedule: Q04DX003 (ip), vehicle: saline with Tween-80 92 % of control

CCCCC[CH2][Sn]([CH2]C)([CH2]C)[O]C(C)=O
inactive: endpoint: mean survival time, dose: 0.5 mg/kg/injection, schedule: Q04DX003 (ip), vehicle: saline 103 % of control | endpoint: mean survival time, dose: 0.63 mg/kg/injection, schedule: Q04DX003 (ip), vehicle: saline with Tween-80 95 % of control | endpoint: mean survival time, dose: 1.0 mg/kg/injection, schedule: Q04DX003 (ip), vehicle: saline 100 % of control | endpoint: mean survival time, dose: 1.25 mg/kg/injection, schedule: Q04DX003 (ip), vehicle: saline with Tween-80 93 % of control | endpoint: mean survival time, dose: 2.0 mg/kg/injection, schedule: Q04DX003 (ip), vehicle: saline 91 % of control | endpoint: mean survival time, dose: 2.5 mg/kg/injection, schedule: Q04DX003 (ip), vehicle: saline with Tween-80 88 % of control

COc1ccc(-n2cnc3c(cnn3C3OC(CO)C(O)C3O)c2=O)cc1 (stereo unspecified)
inactive: endpoint: median survival time, dose: 12.5 mg/kg/injection, schedule: Q01DX005 (ip), vehicle: saline 105 % of control | endpoint: median survival time, dose: 25.0 mg/kg/injection, schedule: Q01DX005 (ip), vehicle: saline 102 % of control | endpoint: median survival time, dose: 50.0 mg/kg/injection, schedule: Q01DX005 (ip), vehicle: saline 102 % of control | endpoint: median survival time, dose: 100.0 mg/kg/injection, schedule: Q01DX005 (ip), vehicle: saline 105 % of control | endpoint: median survival time, dose: 200.0 mg/kg/injection, schedule: Q01DX005 (ip), vehicle: saline 106 % of control

O=C1C2C3SC(c4nc5ccccc5cc43)C2C(=O)N1c1ccccc1 (stereo unspecified)
inactive: endpoint: mean survival time, dose: 25.0 mg/kg/injection, schedule: Q01DX001 (ip), vehicle: saline with Tween-80 92 % of control | endpoint: mean survival time, dose: 50.0 mg/kg/injection, schedule: Q01DX001 (ip), vehicle: saline with Tween-80 92 % of control

CC1(C)N=C(N)N=C(N)N1c1ccc(CCc2ccccc2)cc1
inactive: endpoint: mean survival time, dose: 12.5 mg/kg/injection, schedule: Q01DX009 (ip), vehicle: saline with Tween-80 95 % of control | endpoint: mean survival time, dose: 25.0 mg/kg/injection, schedule: Q01DX009 (ip), vehicle: saline with Tween-80 87 % of control

OC(c1ccccc1)(c1ccccc1)c1ccc(CN2CCOCC2)cc1
inactive: endpoint: mean survival time, dose: 12.5 mg/kg/injection, schedule: Q01DX009 (ip), vehicle: other 101 % of control | endpoint: mean survival time, dose: 25.0 mg/kg/injection, schedule: Q01DX009 (ip), vehicle: other 98 % of control | endpoint: mean survival time, dose: 50.0 mg/kg/injection, schedule: Q01DX009 (ip), vehicle: other 93 % of control | endpoint: mean survival time, dose: 100.0 mg/kg/injection, schedule: Q01DX009 (ip), vehicle: other 90 % of control | endpoint: mean survival time, dose: 200.0 mg/kg/injection, schedule: Q01DX009 (ip), vehicle: other 98 % of control
